What was measured:
Type in all cases: in vivo
Oryza sativa = experiment: Post-emergence crop plant compatibility
How it was run: (§1)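 Greenhouse crop plants in sandy loam sprayed at one-leaf stage (2-3 weeks after sowing) with WP or EC formulations plus 0.5% additive, 600 l/ha water, at 5 g/ha or 20 g/ha. Damage scored visually after about 3 weeks as % versus untreated controls (100% = plants dead).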

Zea mays = experiment: Post-emergence crop plant compatibility; conditions: application rate 5 g/ha
How it was run: as §1

Setaria viridis = experiment: Post-emergence herbicidal action; conditions: rated visually after about 3 weeks vs untreated controls
How it was run: (§2)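 Percent activity, judged by eye about 3 weeks after treatment relative to untreated plants, ranges from 0% (as control) to 100% (plants dead). Foliar application at 20 g/ha and less was made at the one-leaf stage using a 600 l/ha aqueous spray containing 0.5% additive.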

Veronica persica = experiment: Post-emergence herbicidal action
How it was run: as §2

Lolium rigidum = experiment: Post-emergence herbicidal action; conditions: application rate 20 g/ha, rated visually after about 3 weeks vs untreated controls
How it was run: as §2

Abutilon theophrasti = experiment: Post-emergence herbicidal action; conditions: rated visually after about 3 weeks vs untreated controls
How it was run: as §2

Polygonum convolvulus = experiment: Post-emergence herbicidal action
How it was run: as §2

Hordeum murinum = experiment: Post-emergence herbicidal action; conditions: application rate 20 g/ha
How it was run: as §2

Pharbitis purpurea = experiment: Post-emergence herbicidal action; conditions: rated visually after about 3 weeks vs untreated controls
How it was run: as §2

Amaranthus retroflexus = experiment: Post-emergence herbicidal action; conditions: rated visually after about 3 weeks vs untreated controls
How it was run: as §2

Alopecurus myosuroides = experiment: Post-emergence herbicidal action; conditions: rated visually after about 3 weeks vs untreated controls
How it was run: as §2

Digitaria sanguinalis = experiment: Post-emergence herbicidal action; conditions: rated visually after about 3 weeks vs untreated controls
How it was run: as §2

Matricaria inodora = experiment: Post-emergence herbicidal action; conditions: rated visually after about 3 weeks vs untreated controls
How it was run: as §2

Viola tricolor = experiment: Post-emergence herbicidal action
How it was run: as §2

Avena fatua = experiment: Post-emergence herbicidal action; conditions: application rate 20 g/ha, rated visually after about 3 weeks vs untreated controls
How it was run: as §2

Echinochloa crus-galli = experiment: Post-emergence herbicidal action; conditions: rated visually after about 3 weeks vs untreated controls
How it was run: as §2

Stellaria media = experiment: Post-emergence herbicidal action; conditions: application rate 5 g/ha, rated visually after about 3 weeks vs untreated controls
How it was run: as §2

Structure (SMILES)	Oryza sativa (efficacy in %) (Oryza sativa; application rate 5 g/ha) [%]	Zea mays (efficacy in %) (Zea mays) [%]	Lolium rigidum (efficacy in %) (Lolium rigidum) [%]	Avena fatua (efficacy in %) (Avena fatua) [%]	Setaria viridis (efficacy in %) (Setaria viridis; application rate 20 g/ha) [%]	Veronica persica (efficacy in %) (Veronica persica; application rate 20 g/ha) [%]	Abutilon theophrasti (efficacy in %) (Abutilon theophrasti; application rate 20 g/ha) [%]	Pharbitis purpurea (efficacy in %) (Pharbitis purpurea; application rate 20 g/ha) [%]	Amaranthus retroflexus (efficacy in %) (Amaranthus retroflexus; application rate 20 g/ha) [%]	Alopecurus myosuroides (efficacy in %) (Alopecurus myosuroides; application rate 20 g/ha) [%]	Digitaria sanguinalis (efficacy in %) (Digitaria sanguinalis; application rate 20 g/ha) [%]	Matricaria inodora (efficacy in %) (Matricaria inodora; application rate 20 g/ha) [%]	Viola tricolor (efficacy in %) (Viola tricolor; application rate 20 g/ha) [%]	Echinochloa crus-galli (efficacy in %) (Echinochloa crus-galli; application rate 20 g/ha) [%]	also measured
Cn1c(C(F)(F)F)cc(=O)n(-c2cc(Sc3cccnc3SCC(=O)OCC3CCCO3)c(Cl)cc2F)c1=O (stereo not shown) [I.10-71]	20	20	80	80	–	–	–	–	–	–	–	–	–	–	Setaria viridis (efficacy in %) (Setaria viridis; application rate 5 g/ha): 100%; Veronica persica (efficacy in %) (Veronica persica; application rate 5 g/ha): 90%; Abutilon theophrasti (efficacy in %) (Abutilon theophrasti; application rate 5 g/ha): 100%; Polygonum convolvulus (efficacy in %) (Polygonum convolvulus; application rate 5 g/ha): 100%; Hordeum murinum (efficacy in %) (Hordeum murinum): 80%; Pharbitis purpurea (efficacy in %) (Pharbitis purpurea; application rate 5 g/ha): 100%; Amaranthus retroflexus (efficacy in %) (Amaranthus retroflexus; application rate 5 g/ha): 100%; Alopecurus myosuroides (efficacy in %) (Alopecurus myosuroides; application rate 5 g/ha): 80%; Digitaria sanguinalis (efficacy in %) (Digitaria sanguinalis; application rate 5 g/ha): 90%; Matricaria inodora (efficacy in %) (Matricaria inodora; application rate 5 g/ha): 80%; Viola tricolor (efficacy in %) (Viola tricolor; application rate 5 g/ha): 100%; Echinochloa crus-galli (efficacy in %) (Echinochloa crus-galli; application rate 5 g/ha): 100%; Stellaria media (efficacy in %) (Stellaria media): 100%
COCCOC(=O)COc1ncccc1Oc1cc(-n2c(=O)cc(C(F)(F)F)n(C)c2=O)c(F)cc1[N+](=O)[O-] [I.14-1]	0	10	80	80	100	100	100	100	100	90	100	100	100	100	Polygonum convolvulus (efficacy in %) (Polygonum convolvulus; application rate 20 g/ha): 100%
CCOCCOC(=O)COc1ncccc1Oc1cc(-n2c(=O)cc(C(F)(F)F)n(C)c2=O)c(F)cc1[N+](=O)[O-] [I.14-2]	–	20	90	100	100	100	100	100	100	100	100	100	100	100	Oryza sativa (efficacy in %) (Oryza sativa; application rate 20 g/ha): 10%

Source: patent publication US20220289708A1, “SUBSTITUTED N-PHENYL URACILS, SALTS THEREOF AND THEIR USE AS HERBICIDAL AGENTS” (Bayer Aktiengesellschaft, priority 2019, published 2022)
